# Laboratory results taken from US20110060028A1, “COMBINATION THERAPY” (UNIVERSITY OF YORK, priority 2007, published 2011).
# d = 2'-deoxy (DNA)
# Key:
# Format in all cases: cell-based, human
# SIRT1 mRNA = test: Quantitative RT-PCR of SIRT1 mRNA; conditions: for SIRT1 mRNA estimated t1/2: following administration of 5-FU
# Experimental: (§1) Epithelial cancer cell lines RKO, LoVo, DLD-1, HT29, U2OS, SAOS-2, MCF7, HTB-126, HT-1080 and SiHa were obtained from ATCC. Isogenic colorectal carcinoma cell lines HCT116 p53+/+ and HCT116 p53−/− were a kind gift of Bert Vogelstein. Non-cancer cells were normal diploid fibroblasts (NDF) and ARPE-19 immortalised retinal epithelial cells (ATCC), and normal human embryonic keratinocytes (NHEK, Invitrogen). Cells were cultured according to the supplier's protocols. siRNA sequences, transfection protocols and target validations were as described (Ref. 27 and Methods). For drug treatments, cells were treated 48 hours post-plating with final concentration of 5-FU (375 OM) and uridine (425 OM) as indicated and harvested 24 h later. For combined transfection/drug treatment, drugs were applied 24 h post-transfection and cells harvested 24 h later. For time course analyses cells were harvested at indicated time points post-treatment.
# Cellular mRNAs were extracted for quantitative RT-PCR as previously described^27. Primers and thermal cycling conditions were as described^27 (Methods); quantifications were performed in triplicate.
# (§2) Cells for transfection and/or drug treatment were plated at a density of 6×10^4 (ARPE-19) or 1.4×10^5 (HCT116) per well in 6-well plates. For the experiment in FIG. 3a, ARPE-19 cells were plated at a density of 4×10^4 per well. Transfections were performed 24 hours post-plating in Opti-MEM (Gibco) using Oligofectamine (Invitrogen) according to the manufacturer's instructions. Chemically synthesized, HPLC-purified siRNAs were obtained from Qiagen or Dharmacon. SIRT1 siRNA sequence has been described^27. JNK1 siRNA sequences were: Sense 5′-CUCCACCACCAAAGAUCCC(dTdT)-3′, antisense 5′-GGGAUCUUUGGUGGUGGAG(dTdT)-3′. JNK2 siRNA sequences were: Sense 5′-GAGCUGGUGAAAGGUUGUG(dTdT)-3′, antisense 5′-CACAACCUUU CACCAGCUC(dTdT)-3′. Specificities of SIRT1 siRNA, JNK1 sIRNA and JNK2 siRNA have been validated previously¢ (Ahmed and Milner, in submission). Cells were harvested for analysis 48 h post-transfection, except where indicated otherwise. For drug treatment, drugs were applied by complete media replacement 48 h post-plating at final concentration 375 μM (5-FU) or 425 μM (uridine). Cells were harvested for analysis 24h following application of drugs, or at the indicated timepoints for time-course analysis. For combined transfection/drug experiments, drugs were applied approximately 20 hours post-transfection. Cells from combined transfection/drug experiments were harvested for analysis after 24 hours of drug exposure (˜48 hours post-transfection).
# Relative mRNA levels were quantitated by realtime RT-PCR. […] SIRT1 primers 5′-[…]-3′ and 5′-[…]-3′ were used in the thermal cycle: 50° C. for 30 minutes, 94° C. for 15 minutes, followed by 35 cycles of 94° C. for 30 seconds, 55° C. for 30 seconds, 72° C. for 30 seconds, then 75° C. for 15 seconds before the plate was read. JNK1 primers 5′-[…]-3′ and 5′-[…]-3′ were used in the thermal cycle: 50° C. for 30 minutes, 94° C. for 15 minutes, followed by 35 cycles of 94° C. for 30 seconds, 57° C. for 30 seconds, 72° C. for 30 seconds, then 75° C. for 15 seconds before the plate was read. JNK2 primers 5′-[…]-3′ and 5′-[…]-3′ were used in the thermal cycle: 50° C. for 30 minutes, 94° C. for 15 minutes, followed by 35 cycles of 94° C. for 30 seconds, 55° C. for 30 seconds, 72° C. for 30 seconds, then 75° C. for 15 seconds before the plate was read. All RT-PCR quantifications were performed in triplicate.
# laminA/C and GAPDH mRNAs = test: Quantitative RT-PCR of laminA/C and GAPDH mRNAs; conditions: 5-FU for 24 h
# Experimental: Epithelial cancer cell lines RKO, LoVo, DLD-1, HT29, U2OS, SAOS-2, MCF7, HTB-126, HT-1080 and SiHa were obtained from ATCC. Isogenic colorectal carcinoma cell lines HCT116 p53+/+ and HCT116 p53−/− were a kind gift of Bert Vogelstein. Non-cancer cells were normal diploid fibroblasts (NDF) and ARPE-19 immortalised retinal epithelial cells (ATCC), and normal human embryonic keratinocytes (NHEK, Invitrogen). Cells were cultured according to the supplier's protocols. siRNA sequences, transfection protocols and target validations were as described (Ref. 27 and Methods). […]
# Cellular mRNAs were extracted for quantitative RT-PCR as previously described^27. Primers and thermal cycling conditions were as described^27 (Methods); quantifications were performed in triplicate. […]
# Relative mRNA levels were quantitated by realtime RT-PCR. […] SIRT1 primers 5′-[…]-3′ and 5′-[…]-3′ were used in the thermal cycle: 50° C. for 30 minutes, 94° C. for 15 minutes, followed by 35 cycles of 94° C. for 30 seconds, 55° C. for 30 seconds, 72° C. for 30 seconds, then 75° C. for 15 seconds before the plate was read. JNK1 primers 5′-[…]-3′ and 5′-[…]-3′ were used in the thermal cycle: 50° C. for 30 minutes, 94° C. for 15 minutes, followed by 35 cycles of 94° C. for 30 seconds, 57° C. for 30 seconds, 72° C. for 30 seconds, then 75° C. for 15 seconds before the plate was read. […]
# SIRT1 = test: Immunoblotting of total SIRT1, SIRT1 S27P and SIRT1 S47P
# Experimental: as §1
# (§3) Cells were prepared as described (Methods). For immunoblotting equivalent numbers of cells, or equivalent amounts of protein, were loaded in each lane. Antibodies were: Anti-SIRT1 (H-300, Santa Cruz), anti-phosphoserine27-SIRT1 (#2327, Cell Signaling), anti-phosphoserine47-SIRT1 (#2314, Cell Signaling), anti-actin (MAB1501, Chemicon), anti-p53 (00-1, Santa Cruz), anti-acetylated-p53-lysine382 (#2525, Cell Signaling), anti-JNK1 (F-3, Santa Cruz), anti-JNK2 (#4672, Cell Signaling). Visualisation of bound antibodies was by ECL, with quantitation by densitometry of signals within the linear range.
# as §2
# For preparation of total protein lysates, cell counts or protein assay was performed, with the method chosen consistent within each experiment. Cells were lysed in lysis buffer IPAMN (10 mM TRIS base pH 8.0, 140 mM NaCl, 2 mM CaCl2, 0.5% NP-40, 5 U ml^−1 micrococcal nuclease) for 3 minutes at room temperature followed by addition of 0.25× volumes of 6×SDS-PAGE sample buffer and brief heating to 90° C. Samples for protein assay were withdrawn before addition of 6×SDS-PAGE sample buffer, and assayed using BCA Protein Assay Kit (Pierce) according to the manufacturers instructions. Equivalent numbers of cells, or equivalent amounts of protein, were electrophoresed on 10% or 15% SDS-PAGE, electrobiotted to Protran membrane (Schleicher&Schuell) using a wet-blot transfer system, blocked for 1 hour at room temperature and probed with primary antibodies overnight at 4° C. […]
# p53 = test: Immunoblotting of p53 and p53 K382Ac
# Experimental: as §1, §3
# as §2, with “For combined transfection/drug experiments, drugs were applied approximately 20 hours post-transfection. Cells from combined transfection/drug experiments were harvested for analysis after 24 hours of drug exposure (˜48 hours post-transfection).” left out
# HCT116 p53+/+ cells = test: Apoptosis (annexin-V staining, phase contrast); conditions: 24 h drug exposure
# Experimental: (§4) Phase contrast digital images were captured using an Axiovert 200M microscope (Zeiss). Apoptotic cells were identified by flow cytometry using annexin-V-Fluos (Roche) following the manufacturer's protocol.
# as §2, with “Cells were harvested for analysis 24h following application of drugs, or at the indicated timepoints for time-course analysis. For combined transfection/drug experiments, drugs were applied approximately 20 hours post-transfection. Cells from combined transfection/drug experiments were harvested for analysis after 24 hours of drug exposure (˜48 hours post-transfection).” left out
# ARPE-19 cells = test: Cell viability / apoptosis (annexin-V staining, phase contrast); conditions: 24 h drug exposure
# Experimental: as §4
# as §2, with “Cells were harvested for analysis 24h following application of drugs, or at the indicated timepoints for time-course analysis. For combined transfection/drug experiments, drugs were applied approximately 20 hours post-transfection. Cells from combined transfection/drug experiments were harvested for analysis after 24 hours of drug exposure (˜48 hours post-transfection).” left out
# exogenous SIRT1 protein = test: Exogenous SIRT1 expression after RNAi and cycloheximide time course, immunoblotting
# Text: FIG. 13 JNK-dependent phosphorylation at S27 stabilises exogenous SIRT1 protein. a. Schematic of experimental protocol for RNA′ followed by transfection with exogenous SIRT1 expression vector (see text). b. Exogenous expression of SIRT1 in intact HCT116 cells (lane 2), JNK2-depleted cells (lane 3) and JNK1-depleted cells (lane 4) detected by immunoblotting. Lane 1 =intact, non-transfected cells. Note that in both intact cells and JNK1-depleted cells the exogenous SIRT1 is phosphorylated on S27 and S47, whereas in JNK2-depleted cells S27P levels reflect endogenous SIRT1 (lanes 1 and 3, asterix), c, d. Time course analyses of SIRT1 protein levels and SIRT1 S27P following addition of cycloheximide in intact (panel c) and JNK2-depleted (panel d) HCT116 cells as indicated. e. SIRT1 protein levels at indicated times post treatment with cycloheximide (CHX) in intact cells (solid circles, solid line) and in JNK-depleted cells (open circles, dashed line).
# To further explore the relationship between SIRT1 and JNK2 we expressed exogenous . SIRT1 in HCT116 p53+/+ cells in which JNK2 had been depleted by RNAI (Methods and FIG. 13a). When expressed in intact cells exogenous SIRT1 protein was phosphorylated at both S27 and S47 (FIG. 13b, lane 2). […] In addition total exogenous SIRT1 protein levels were reduced in JNK2-depleted cells (FIG. 13b, lane 3 cp. lane 2, SIRT1), consistent with reduced SIRT1 protein stability in the absence of S27 phosphorylation. […] S47 kinase/phosphatase activity. […] Thus JNK2, but not JNK1, is required for S27 phosphorylation and associated accumulation of SIRT1 protein.
# Reduced accumulation of SIRT1 protein under these conditions is consistent with the premise that JNK2-dependent phosphorylation of SIRT1 at S27P stabilises the SIRT1 protein. This was confirmed by time course studies in which exogenous SIRT1 protein levels were monitored following inhibition of protein synthesis by cycloheximide. […] In intact cells exogenous SIRT1 protein was phosphorylated at S27 (FIG. 13c) and was also stable over 9 hr (FIGS. 13c and 13e). However, in JNK2-depleted cells exogenous SIRT1 protein lacked S27P (FIG. 13d) and protein levels declined with a half life of approximately 2 hrs (FIGS. 13d and 13e). We conclude that JNK2 is required, directly or indirectly, for phosphorylation of SIRT1 at S27 and that this is linked with stabilisation of SIRT1 protein in HCT116 cancer cells.
compound,measurement,setting,value
"O=c1[nH]cc(F)c(=O)[nH]1 [5-FU, 5-fluorouracil]",depletion of SIRT1 mRNA,"SIRT1 mRNA; 5-FU (375 μM) for 24 h, ARPE-19 and HCT116 cells (FIG. 2a)",80%
same,SIRT1 mRNA estimated t1/2,SIRT1 mRNA; ARPE-19 cells,~4 h
same,SIRT1 mRNA estimated t1/2,SIRT1 mRNA; HCT116 cells,< 2 h
same,lamin A/C and GAPDH mRNA levels,laminA/C and GAPDH mRNAs,relatively unaffected
same,total SIRT1 protein levels,SIRT1; ARPE-19 cells,increased 6 h after 5-FU treatment and subsequently declined by 24 h
same,SIRT1 S27 phosphorylation,SIRT1; HCT116 p53+/+ cells,lost
same,total SIRT1 protein levels,SIRT1; HCT116 p53+/+ cells,"stable over 12 h, but declined by 24 h post-treatment"
same,SIRT1 S27 phosphorylation,SIRT1; HCT116 p53−/− cells,retained
same,total SIRT1 protein levels,SIRT1; HCT116 p53−/− cells,remains constant up to at least 48 h
same,acetylation of p53,p53; ARPE-19 cells,undetectable
same,p53 response,p53; ARPE-19 cells,attenuated
same,p53 K382 acetylation,p53; HCT116 p53+/+ cells,induction
same,p53 response,p53; HCT116 p53+/+ cells,sustained
same,apoptosis,HCT116 p53+/+ cells,apoptosis
same,cell viability,ARPE-19 cells,remained viable
"JNK1 siRNA: siRNA: sense 5′-CUCCACCACCAAAGAUCCC(dTdT)-3′, antisense 5′-GGGAUCUUUGGUGGUGGAG(dTdT)-3′ (RNA, 3' dTdT, backbone not given here)","SIRT1 protein levels, S27 or S47 phosphorylation","SIRT1; ARPE-19, HCT116 p53+/+ or HCT116 p53−/− cells",no effect
same,total SIRT1 protein levels,SIRT1; ARPE-19 cells,no effect
same,exogenous expression of SIRT1 and its phosphorylation,exogenous SIRT1 protein; HCT116 p53+/+ cells,indistinguishable from the intact controls
"JNK2 siRNA: siRNA: sense 5′-GAGCUGGUGAAAGGUUGUG(dTdT)-3′, antisense 5′-CACAACCUUU CACCAGCUC(dTdT)-3′ (antisense CACAACCUUUCACCAGCUC; RNA, 3' dTdT, backbone not given here)",SIRT1 mRNA levels,"SIRT1 mRNA; ARPE-19 cells, 24-96 h post-transfection",remained constant
same,SIRT1 mRNA levels,SIRT1 mRNA; HCT116 p53+/+ cells,absence of any reduction
same,total SIRT1 protein levels,SIRT1; ARPE-19 cells,reduced levels of SIRT1 protein
same,SIRT1 S27 phosphorylation,SIRT1; HCT116 p53+/+ cells,loss of SIRT1 S27P
same,SIRT1 S47P,SIRT1; HCT116 p53+/+ cells,barely detectable
same,total SIRT1 protein levels,SIRT1; HCT116 p53+/+ cells,reduced SIRT1 protein levels
same,SIRT1 protein levels or phosphorylation status,SIRT1; HCT116 p53−/− cells,little effect
same,half life of exogenous SIRT1 protein,"exogenous SIRT1 protein; HCT116 cells, following addition of cycloheximide",approximately 2 hrs
same,S27 phosphorylation of exogenous SIRT1 protein,exogenous SIRT1 protein; HCT116 p53+/+ cells,non-phosphorylated at S27
same,exogenous SIRT1 S47P,exogenous SIRT1 protein; HCT116 p53+/+ cells,clearly detectable
same,total exogenous SIRT1 protein levels,exogenous SIRT1 protein; HCT116 p53+/+ cells,reduced
